Experimental data from patent US20120322827A1, “COMPOUNDS AND METHODS” (priority 2010, published 2012).

What follows are compounds tested against T1, Recombinant HDAC9 isoform 4 (Homo sapiens, UniProt Q9UKV0) (assay: Histone Deacetylase 9 (HDAC9) inhibition assay, fluorogenic substrate). Settings: mean of a minimum of 2 experiments; 11 point 3x dilution series from 100 uM; 45 minutes incubation at room temperature; read-out: mean pIC50 of HDAC9 inhibition (converted).
T1 construct: purchased BPS Bioscience
Type: biochemical
Source text: Histone Deacetylase 9 (HDAC9) Inhibition Assay:
Novel histone deacetylase 9 (HDAC9) inhibitors were characterized in an in vitro biochemical functional assay. The assay measures the increased fluorescent signal due to deacetylation, by HDAC9, of a fluorogenic substrate. The commercial available substrate is Class IIa HDAC-specific and contains an acetylated lysine residue and would releases the fluorescent signal upon trypsin cleavage after deacetylation.
Specifically, test compounds diluted to various concentrations in 100% DMSO are first dispensed into 384-well assay plates. Recombinant HDAC9 isoform 4 (purchased from BPS Bioscience) in complete assay buffer (50 mM Tris-HCl, pH 8.0, 137 mM NaCl, 2.7 mM KCl, 1 mM MgCl2, 0.05% BSA & 0.005% Tween 20) were then added to each well (5 uL/well) using Multidrop Combi (Thermo Scientific), followed by 5 uL/well substrate (purchased from BPS Bioscience, 4.5 uM final). After 45 minutes incubation at room temperature, 10 uL 2× developer solution (assay buffer with 40 uM Trypsin and 20 uM Trichostatin A) was added. The plates were then incubated 1 hour at room temperature before reading in fluorescent intensity mode at 450 nm in an Envision (Perkin Elmer) plate reader. Percent Inhibition of HDAC9 activity by compounds in each test wells was calculated by normalizing to fluorescent signal in control wells containing DMSO only.
For dose response experiments, normalized data were fit by ABASE/XC50 using the equation y=a+(b−a)/(1+(10̂×/10̂c)̂d), where a is the minimum % activity, b is the maximum % activity, c is the pIC50, d is the Hill slope.

T1 sequence (Q9UKV0 1-1066 isoform Q9UKV0-5): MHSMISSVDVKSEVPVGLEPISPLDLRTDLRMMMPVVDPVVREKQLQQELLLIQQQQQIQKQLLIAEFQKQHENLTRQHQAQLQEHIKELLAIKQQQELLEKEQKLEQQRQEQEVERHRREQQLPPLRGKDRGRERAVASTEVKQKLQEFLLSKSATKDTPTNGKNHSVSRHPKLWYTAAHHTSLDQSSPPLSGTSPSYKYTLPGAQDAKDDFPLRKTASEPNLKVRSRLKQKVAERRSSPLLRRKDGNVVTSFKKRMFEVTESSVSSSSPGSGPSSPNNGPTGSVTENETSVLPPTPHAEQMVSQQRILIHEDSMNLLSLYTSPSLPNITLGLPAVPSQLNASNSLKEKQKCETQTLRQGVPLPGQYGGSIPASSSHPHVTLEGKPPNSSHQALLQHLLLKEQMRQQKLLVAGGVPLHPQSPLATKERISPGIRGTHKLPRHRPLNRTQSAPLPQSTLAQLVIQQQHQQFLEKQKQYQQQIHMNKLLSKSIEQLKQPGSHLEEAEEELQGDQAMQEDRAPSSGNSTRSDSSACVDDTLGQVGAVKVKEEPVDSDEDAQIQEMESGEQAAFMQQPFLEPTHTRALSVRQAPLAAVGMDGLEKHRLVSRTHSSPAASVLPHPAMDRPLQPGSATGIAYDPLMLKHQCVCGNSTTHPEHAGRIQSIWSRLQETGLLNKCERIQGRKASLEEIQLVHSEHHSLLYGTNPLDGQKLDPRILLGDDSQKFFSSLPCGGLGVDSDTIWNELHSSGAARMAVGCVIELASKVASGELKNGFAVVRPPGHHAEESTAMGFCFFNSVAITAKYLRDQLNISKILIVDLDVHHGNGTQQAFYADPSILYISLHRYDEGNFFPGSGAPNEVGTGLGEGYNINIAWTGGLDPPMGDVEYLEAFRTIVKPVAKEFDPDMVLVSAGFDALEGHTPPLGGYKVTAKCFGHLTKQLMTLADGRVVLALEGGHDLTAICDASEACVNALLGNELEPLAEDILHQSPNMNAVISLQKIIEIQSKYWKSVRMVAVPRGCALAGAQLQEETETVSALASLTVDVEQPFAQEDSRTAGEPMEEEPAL

IC50	Compound
< 1 µM	CC(C)(CNC(=O)CCCc1noc(C(F)(F)F)n1)c1coc(-c2ccc(F)cc2)n1 [Example 3, N-(2-(2-(4-Fluorophenyl)oxazol-4-yl)-2-methylpropyl)-4-(5-(trifluoromethyl)-1,2,4-oxadiazol-3-yl)butanamide]
< 1 µM	CN(C)CCC(CNC(=O)CCCc1noc(C(F)(F)F)n1)c1coc(-c2ccc(F)cc2)n1 (stereo not shown) [Example 4, N-(4-(Dimethylamino)-2-(2-(4-fluorophenyl)oxazol-4-yl)butyl)-4-(5-(trifluoromethyl)-1,2,4-oxadiazol-3-yl)butanamide]
< 1 µM	CN(C)CCC(CNC(=O)CCCc1ccc(C(=O)C(F)(F)F)s1)c1coc(-c2ccc(F)cc2)n1 (stereo not shown) [Example 18, N-(4-(Dimethylamino)-2-(2-(4-fluorophenyl)oxazol-4-yl)butyl)-4-(5-(2,2,2-trifluoroacetyl)thiophen-2-yl)butanamide]

Compound	IC50
CN1CCC(CNC(=O)CCCc2noc(C(F)(F)F)n2)(c2coc(-c3ccc(F)cc3)n2)CC1 [Example 5, N-((4-(2-(4-Fluorophenyl)oxazol-4-yl)-1-methylpiperidin-4-yl)methyl)-4-(5-(trifluoromethyl)-1,2,4-oxadiazol-3-yl)butanamide]	< 1 µM
